The results in this text go back to US10940179B2, “Therapeutic compositions for the treatment of dry eye disease” (SCHEPENS EYE RESEARCH INSTITUTE, priority 2010, dated 2021).

The subject of assay [1] is DED mice. Briefly: Corneal fluorescein staining / clinical signs in experimental dry eye murine model. Particulars: for Clinical signs of DED / disease severity: anti-VEGF-C-treated vs untreated (saline) group, daily i.p. The assay is classed as in vivo, mouse. From the text:
(§1) Eight to ten week-old female C57BLI6 mice (Charles River Laboratory, Wilmington, Mass.) were used in accordance with the standards in the ARVO Statement for the Use of Animals in Ophthalmic and Vision Research. The research protocol was approved by the Schepens Eye Research Institute Animal Care and Use Committee. Dry eye was induced in murine eyes using a Controlled Environment Chamber (CEC) which exposes the mice to high-flow desiccated air. To achieve maximum ocular surface dryness, the conditions in CEC were supplemented with topical application of 1% atropine sulfate (Falcon Pharma, Fort Worth, Tex.) twice for the first 48 hours and subcutaneous injections of 0.1 ml of 5 mg/ml of scopolamine hydrobromide (Sigma-Aldrich, St. Louis, Mo.) three times a day, for the entire duration of the experiment.
(§2) Anti-VEGF-C antibodies (VGX-100; Vegenics Limited, Australia) were administered intraperitonealy daily from day 1 to day 10 to DED mice. Mice were assessed clinically using corneal fluorescent staining. Tissues from cornea, conjunctiva and draining lymph nodes were examined for cellular and molecular pathological changes.
Corneal lymphatics play an important role in mediating the corneal inflammation in dry eyes. Experiments: To validate this, inhibition of corneal neolymphangiogenesis was performed in a well characterized mouse model of DED described above. To see if inhibition of corneal neolymphangiogenesis could decrease ocular surface inflammation, anti-VEGF-C antibodies were administered i.p. daily from day −1 to day 10 to DED mice and assessed clinically using corneal fluorescein staining.
Methods (as described previously): Induction of Dry Eye Disease. Experimental Dry Eye Murine Model. Assessment of Corneal Surface: Corneal Fluorescein Staining. Immunohistochemistry: Monocyte/macrophage marker—CD11b; Pan-endothelial marker—CD31; Lymphatic endothelial marker—LYVE-1; Blood vessels: CD31^hi/LYVE-1; Lymph vessels: CD31^lo/LYVE-l^hi. Morphometry of Lymphangiogenesis: Automated image analysis program written using Mat lab. Lymphatic Area (LA)—total surface area of the lymphatic vessels when projected into the plane of the image. Lymphatic Caliber (LC)—measure of the diameters of the lymphatic vessels.
Anti-VEGF-C antibody and treatment regimen. Experimental design: Three groups: Normal, DE group treated with IP normal Saline (Untreated) and DE group treated with anti-VEGF-C antibody (VGX-100; a gift from Vegenics, Australia). Daily IP application of anti-VEGF-C antibody/Normal saline from day −1 to day 13. Dose: […] (20 mg/kg) in […] of Normal Saline.

Assay [2] deals with corneal lymphatics. Briefly: Corneal lymphangiogenesis in DED mice (CD31/LYVE-1 staining, morphometry). Further details: species or system mouse. Particulars: in vivo blockade of VEGF-C. The text has this: (§3) Eight to ten week-old female C57BLI6 mice (Charles River Laboratory, Wilmington, Mass.) were used in accordance with the standards in the ARVO Statement for the Use of Animals in Ophthalmic and Vision Research. The research protocol was approved by the Schepens Eye Research Institute Animal Care and Use Committee. Dry eye was induced in murine eyes using a Controlled Environment Chamber (CEC) which exposes the mice to high-flow desiccated air. […]
(§4) Freshly excised corneas were washed in PBS, fixed in acetone for 15 minutes and then double stained with CD31 and LYVE-1 as described previously. To analyze infiltration of CD11b^+/LYVE-1 cells, corneas from three mice from each group were taken and cells were counted in 5-6 areas in the periphery ([…] area from the limbus) of each cornea in a masked fashion, using epifluorescence microscope (model E800; Nikon, Melville, N.Y.) at 40× magnification. The mean number of cells was obtained by averaging the total number of cells in all the areas studied and the result was expressed as the number of positive cells per mm^2.
Morphology of lymphatics was analyzed using an automated image analysis program written with Matlab (The Mathworks, Inc., Natick, Mass.). […] The resultant isolated lymphatic vessels were analyzed morphologically using two metrices, Lymphatic Area (LA) and Lymphatic Caliber (LC). […]

For assay [3], the system named is VEGF-C, -D, R3. The experiment in a line: Real-time PCR of pro-lymphangiogenic growth factors and receptors in DE corneas. In kind it is in vivo, mouse. Particulars: DED mice, VEGF-C blockade.
Excerpt: as §1
Five mice (10 eyes) were included in each group. Two corneas were pooled together to equal as one sample and stored at −80° C. in Trizol (Invitrogen, Carlsbad, Calif.; catalog No. 15596026) until future use. Total RNA was isolated from these corneas using the RNeasy microkit (Qiagen, Valencia, Calif.; catalog No. 74004). Equal amounts of RNA were used to synthesize cDNA using SuperScript™ III Reverse Trancriptase (Invitrogen, Carlsbad, Calif.; catalog No. 18080) according to the manufacturer's recommendations. Real-Time PCR was performed using FAM-MGB dye labeled predesigned primers (Applied Biosystem, Foster City, Calif.) for GAPDH (assay ID.Mm999999 15_gl), VEGF-A (Mm00437304_ml), VEGF-C (Mrn00437313_ml), VEGF-D (Mm00438965_ml), VEGFR-2 (Mm00440099_ml), VEGFR-3 (Mm00433337_ml). 2.5 μl of cDNA was loaded in each well and assays were performed in duplicate. The GAPDH gene was used as the endogenous reference for each reaction. […]
(§5) Real time PCR was performed to quantify expression of different VEGF growth factors (VEGF-A, VEGF-C, VEGF-D) and their receptors (VEGFR-2, VEGFR-3) in the cornea at days 6, 10 and 14 (FIG. 8) and to determine the levels of proinflammatory cytokines.
In general terms: In qPCR the cycle at which signal appears reflects the starting amount.

The subject of assay [4] is IL-1α, IL-1β, IL-6, IL-17. The experiment in a line: Real-time PCR of proinflammatory cytokines in conjunctiva of DED mice. In kind it is in vivo, mouse.
Excerpt: as §1
Five mice (10 eyes) were included in each group. Two corneas were pooled together to equal as one sample and stored at −80° C. in Trizol (Invitrogen, Carlsbad, Calif.; catalog No. 15596026) until future use. Total RNA was isolated from these corneas using the RNeasy microkit (Qiagen, Valencia, Calif.; catalog No. 74004). Equal amounts of RNA were used to synthesize cDNA using SuperScript™ III Reverse Trancriptase (Invitrogen, Carlsbad, Calif.; catalog No. 18080) according to the manufacturer's recommendations. Real-Time PCR was performed using FAM-MGB dye labeled predesigned primers (Applied Biosystem, Foster City, Calif.) for GAPDH (assay ID.Mm999999 15_gl), VEGF-A (Mm00437304_ml), VEGF-C (Mrn00437313_ml), VEGF-D (Mm00438965_ml), VEGFR-2 (Mm00440099_ml), VEGFR-3 (Mm00433337_ml). 2.5 μl of cDNA was loaded in each well and assays were performed in duplicate. The GAPDH gene was used as the endogenous reference for each reaction. The results were normalized by the cycle threshold (CT) of GAPDH and the relative mRNA level in the normal mice was used as the normalized control.
as §2, §5

For assay [5], the system named is CD11b+ cells. The experiment in a line: Enumeration of CD11b+ cells in DED corneas (immunohistochemistry). The assay is classed as in vivo, mouse.
Excerpt: as §3, §4
(§6) Anti-VEGF-C antibodies (VGX-100; Vegenics Limited, Australia) were administered intraperitonealy daily from day 1 to day 10 to DED mice. Mice were assessed clinically using corneal fluorescent staining. […]

Assay [6] has as its system IL-17 (Th17 cells) and IFN-γ (Th1 cells). Briefly: Real-time PCR of inflammatory cytokines in draining lymph nodes of DED mice. In kind it is in vivo, mouse. Particulars: treated vs untreated DED mice.
Excerpt: as §1
Five mice (10 eyes) were included in each group. […]
as §6, §5

Where [7] appears, read: DED mice, VEGF-C blockade (summary).

As for “VGX-100: human anti-VEGF-C monoclonal antibody produced by hybridoma ATCC PTA-4095; heavy/light chains SEQ ID NO: 34/35; from Vegenics”, the Corneal epitheliopathy result in assay [1] (VEGF-C blockade) is “decrease”. Further, the “Clinical signs of DED / disease severity” value in assay [1] is on record as “ameliorates clinical signs of DED”. Besides, in assay [1] (listed as anti-VEGF-C), the “Clinical signs of DED / disease severity” value is “significant decrease in disease severity”. For the same substance, the “Clinical signs of DED / disease severity” value in assay [1] (listed as anti-VEGF-C Ab) is recorded as “ameliorates clinical signs of DED”. Also, in assay [1] (days 5, 9 and 13, vs untreated group, daily IP 400 µg (20 mg/kg) in 100 µl saline), the “Corneal fluorescein staining (CFS) score” value is “significantly decreased”. Besides, in assay [2], the “Corneal lymphangiogenesis / lymphatic growth” value was “suppresses corneallymphangiogenesis”. Besides, the “Corneal lymphangiogenesis / lymphatic growth” value in assay [2] (listed as anti-VEGF-C) is on record as “suppression of lymphatic growth”. Also, in assay [3], the “Expression of VEGF-C in DE corneas” value is given as “decrease”, the “Expression of VEGF-D in DE corneas” value is recorded as “decrease” and the “Expression of VEGFR-3 (R3) in DE corneas” value was “decrease”. In addition, the “mRNA expression levels of proinflammatory cytokines in the conjunctiva” value in assay [4] (setting [7]) is given as “decrease”. In addition, in assay [4] (treated vs untreated DED mice), the “IL-1α expression in conjunctiva (real-time PCR)” value was “significantly decreased expression”, the “IL-1β expression in conjunctiva (real-time PCR)” value is “significantly decreased expression”, the “IL-6 expression in conjunctiva (real-time PCR)” value is reported as “significantly decreased expression” and the “IL-17 expression in conjunctiva (real-time PCR)” value is “significantly decreased expression”. In assay [5] (DED corneas, day 14), the “Decrease of infiltration of CD11b+ cells in DED corneas” value was 30%. In addition, the “Corneal infiltration of CD11b+ cells” value in assay [5] (setting [7]) was “decrease”. For the same substance, the “Induction of T-cell mediated autoimmune response in draining lymph nodes (IL-17, IFN-γ by real-time PCR)” value in assay [6] was “significantly decreased induction”.
